Results on 14 compounds are retold here after PubChem BioAssay (NCI).

Some test systems named below: A498 renal; SK-MEL-5 melanoma; MOLT-4 leukemia; U251 CNS; HCT-15 colon; HCT-116 colon; MALME-3M melanoma; OVCAR-5 ovarian; NCI/ADR-RES ovarian.
Assay in all cases: DTP human tumour cell line panel, 48 h

Structures are written as SMILES. Several values for one entry are separate records, joined by “and”; a condition that tells them apart may be missing. Equal values may be shown once.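 Protocol summary: plate cells (96-well), add compound at 5 concentrations, incubate 48 h, interpolate endpoints linearly. The concentration for 50% growth inhibition is given as GI50. At the TGI there is no net growth.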

The term TGI denotes the concentration at which net growth stops. The low end stands for more potent growth arrest, the high end for less potent growth arrest. `O=C1C2C3CC4C5C3C1C5C1(SCCS1)C42` (stereo not given): the total growth inhibition concentration (TGI) with A498 renal, in the assay with SK-MEL-5 melanoma, in the assay on MOLT-4 leukemia, in the assay with U251 CNS, in the assay with HCT-15 colon and in the assay on HCT-116 colon was over 100 µM each time. The same compound came in with a TGI in the assay with MALME-3M melanoma of over 100 µM.

In the case of `CC(=O)OC(C)(C)C1CC[C@]2(C)/C=C/C(C)C[C@@H](O)/C=C(\C)CC(O)C12` (stereo not given in full), the concentration for total growth inhibition (TGI) in the assay on A498 renal, with SK-MEL-5 melanoma, with MOLT-4 leukemia, in the assay with OVCAR-5 ovarian, with U251 CNS and with HCT-15 colon was over 100 µM in each case. Besides, the TGI in the assay on HCT-116 colon and in the assay with MALME-3M melanoma was over 100 µM throughout.

A word on the GI50: it is the concentration that inhibits growth by half. As to `COc1ccc(-c2csc3c2-n2cccc2C3=O)cc1`, the GI50 in the assay with A498 renal was 0.124 µM; in the assay with SK-MEL-5 melanoma it was 0.0236 µM; with MOLT-4 leukemia, 0.0352 µM; in the assay on OVCAR-5 ovarian, 0.0946 µM; in the assay with U251 CNS, 0.00887 µM; with HCT-15 colon it was 0.0276 µM. Moreover, the GI50 with HCT-116 colon was 0.0199 µM. Also, the TGI with A498 renal is 1.17 µM and 3.15 µM; in the assay on MOLT-4 leukemia, over 87.7 µM; with OVCAR-5 ovarian it was over 100 µM; with U251 CNS it was over 100 µM; in the assay with HCT-15 colon, over 100 µM; in the assay with HCT-116 colon it was over 45.4 µM. Moreover, the TGI with MALME-3M melanoma and with NCI/ADR-RES ovarian was over 100 µM throughout.

For `O=S1OC(c2ccccc2)(c2ccccc2)C(c2ccccc2)(c2ccccc2)O1`, the TGI in the assay on A498 renal, in the assay with SK-MEL-5 melanoma, with MOLT-4 leukemia, with OVCAR-5 ovarian, in the assay on U251 CNS and with HCT-15 colon was over 100 µM in each case. The TGI with HCT-116 colon and in the assay on MALME-3M melanoma was over 100 µM each time.

`Cn1cc(C2NC(=O)c3ccccc3N2)c2ccccc21` (stereo not given): the TGI with A498 renal was over 100 µM; with SK-MEL-5 melanoma it was 5.64 µM; in the assay on OVCAR-5 ovarian, over 100 µM; with U251 CNS, 6.27 µM; in the assay with HCT-15 colon, 8.48 µM; in the assay with HCT-116 colon, over 20.4 µM. For the same compound, the results for the total growth inhibition concentration (TGI) in the assay on MALME-3M melanoma and in the assay with NCI/ADR-RES ovarian were over 29.7 µM and 2.49 µM, respectively.

For `COC(=O)[C@@H](C)C[C@H](Cc1ccccc1)NC(=O)c1nc([C@@H](C[C@H](C(C)C)N(C)C(=O)[C@@H](NC(=O)[C@H]2C[C@H](O)CCN2C)C(C)C)OC(C)=O)sc1C(C)C`, the GI50 is 0.00752 µM with A498 renal; 0.00369 µM with SK-MEL-5 melanoma; 0.0117 µM in the assay on MOLT-4 leukemia; 0.0428 µM with OVCAR-5 ovarian; 0.0075 µM in the assay on U251 CNS; 0.284 µM with HCT-15 colon. In addition, the GI50 is 0.004 µM in the assay with HCT-116 colon, 0.00537 µM in the assay with MALME-3M melanoma and 2.29 µM in the assay with NCI/ADR-RES ovarian. In addition, the total growth inhibition concentration (TGI) with A498 renal is 0.0881 µM; with SK-MEL-5 melanoma, 0.185 µM; in the assay on MOLT-4 leukemia it was over 11.1 µM; in the assay with OVCAR-5 ovarian it was over 11.1 µM; in the assay with U251 CNS it was over 11.1 µM; in the assay with HCT-15 colon, over 11.1 µM. Also, the TGI is 3.88 µM in the assay with HCT-116 colon, over 11.1 µM with MALME-3M melanoma and over 11.1 µM in the assay with NCI/ADR-RES ovarian.

Turning to `COc1nc(NC2OC(COC(C)=O)C(OC(C)=O)C(OC(C)=O)C2OC(C)=O)c(N=CC=Nc2c(NC3OC(COC(C)=O)C(OC(C)=O)C(OC(C)=O)C3OC(C)=O)nc(OC)[nH]c2=O)c(=O)[nH]1` (stereo not given), the TGI with A498 renal, in the assay with SK-MEL-5 melanoma, in the assay on MOLT-4 leukemia, with OVCAR-5 ovarian, in the assay with U251 CNS and in the assay with HCT-116 colon was over 100 µM in each case. The compound further had a TGI in the assay on MALME-3M melanoma of over 100 µM.

In the case of `O=C(O)/C=C/c1ccc(O)c(O)c1`, the TGI in the assay on A498 renal, with SK-MEL-5 melanoma, in the assay on MOLT-4 leukemia, in the assay with OVCAR-5 ovarian, in the assay with U251 CNS and with HCT-15 colon was over 100 µM in each case. Further, the TGI with HCT-116 colon and with MALME-3M melanoma was over 100 µM in each case.

As to `CC(C)(CN1CCCCC1)C(=O)/C=C/c1ccccc1`, the TGI was 57.8 µM with A498 renal; 25.8 µM in the assay with SK-MEL-5 melanoma; 41.4 µM with MOLT-4 leukemia; 40.4 µM in the assay on OVCAR-5 ovarian; 57 µM with U251 CNS; 67.2 µM in the assay with HCT-15 colon. Also, the total growth inhibition concentration (TGI) in the assay with HCT-116 colon was found to be 28.6 µM; with MALME-3M melanoma, 30.3 µM.

As to `O=C(CCc1n[nH]c(=S)o1)Nc1cc(Cl)ccc1Cl`, the TGI with A498 renal is over 100 µM; with SK-MEL-5 melanoma, over 100 µM; in the assay on MOLT-4 leukemia it was over 100 µM; with OVCAR-5 ovarian, over 100 µM; with U251 CNS, over 100 µM; with HCT-15 colon, 38.8 µM. Besides, the TGI with HCT-116 colon was 30.8 µM; in the assay on MALME-3M melanoma it was over 100 µM.

Take `CC1(OCc2ccccc2)C(=O)N2C1NCC2(C)C` (stereo not given): the TGI in the assay on A498 renal, with SK-MEL-5 melanoma, in the assay with MOLT-4 leukemia, in the assay with U251 CNS, in the assay on HCT-15 colon and in the assay with HCT-116 colon was over 100 µM throughout. The same compound displayed a TGI in the assay on MALME-3M melanoma of over 100 µM.

`C/C(CN1C(=O)c2ccccc2C1=O)=N\NS(=O)(=O)c1ccc2ccccc2c1`: the TGI with A498 renal, with SK-MEL-5 melanoma, with MOLT-4 leukemia, in the assay on OVCAR-5 ovarian, with U251 CNS and in the assay on HCT-15 colon was over 100 µM in each case. Besides, the concentration for total growth inhibition (TGI) in the assay with HCT-116 colon and with MALME-3M melanoma was over 100 µM each time.

As for `O=C(/C=C/c1ccccc1)NC1C=Nc2ccc([N+](=O)[O-])cc2NC1=O` (stereo not given), the TGI in the assay with A498 renal, in the assay with SK-MEL-5 melanoma, with MOLT-4 leukemia, in the assay on OVCAR-5 ovarian, in the assay on U251 CNS and in the assay with HCT-15 colon was over 100 µM each time. In addition, the TGI with HCT-116 colon and in the assay with MALME-3M melanoma was over 100 µM each time.

With `COC(=O)C(=O)C(C#N)c1nc2ccccc2s1` (stereo not given), the TGI with A498 renal, in the assay on SK-MEL-5 melanoma, with MOLT-4 leukemia, in the assay on OVCAR-5 ovarian, in the assay with HCT-15 colon and in the assay on HCT-116 colon was over 100 µM throughout. Besides, the TGI in the assay with MALME-3M melanoma was over 100 µM.
